In the assay the target is T1, PfCBH1 (GH7 cellobiohydrolase 1).
T1 construct: natively purified enzyme from the secretome
Nature of the assay: inhibition of pNPL hydrolysis by purified enzyme, Michaelis-Menten/Lineweaver-Burk; IC50 […]. It counts as biochemical, Talaromyces funiculosus (Penicillium funiculosum).

One may read the Ki as a measure of affinity in units of concentration, obtained from inhibition or displacement. A higher Ki goes with a looser hold on the target. On to `OC[C@H]1O[C@@H](O[C@H]2[C@H](O)[C@@H](O)C(O)O[C@@H]2CO)[C@H](O)[C@@H](O)[C@@H]1O` (stereo partly shown) [G2, cellobiose], for which the Ki was 760 ± 54 µM.

The values above are taken from publication PMC5360062, “Comparative insights into the saccharification potentials of a relatively unexplored but robust Penicillium funiculosum glycoside hydrolase 7 cellobiohydrolase” (Biotechnology for Biofuels, 2017).
